Measured values as given in the supplement of paper PMC11451515.

Tested on: SEM cells
Test: cell viability relative to DMSO control; higher = less cytotoxic
Conditions: 48 h
Method in brief: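 In 1536-well plates, 5 μl of leukemia cells were seeded per well: 500 cells/well for NOMO1 or SEM and 1000 cells/well for P12-Ichikawa. Each line had first been adapted for at least four passages in each medium. Library compounds in DMSO were pin-dosed at 11 threefold concentrations between 47 μM and 0.79 nM, and CellTiter-Glo One luminescence was read after 48 h at 37°C. Viability is a per-plate percentage relative to DMSO wells, with cell-free wells as background.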

[1] = HPLM + 10% dialyzed FBS, 0.000781 µM
[2] = HPLM + 10% dialyzed FBS, 0.00234 µM
[3] = HPLM + 10% dialyzed FBS, 0.00702 µM
[4] = HPLM + 10% dialyzed FBS, 0.0211 µM
[5] = HPLM + 10% dialyzed FBS, 0.0632 µM
[6] = HPLM + 10% dialyzed FBS, 0.19 µM
[7] = HPLM + 10% dialyzed FBS, 0.569 µM
[8] = HPLM + 10% dialyzed FBS, 1.71 µM
[9] = HPLM + 10% dialyzed FBS, 5.12 µM
[10] = HPLM + 10% dialyzed FBS, 15.4 µM
[11] = HPLM + 10% dialyzed FBS, 46.1 µM
[12] = RPMI 5 mM glucose + 10% FBS, 0.000781 µM
[13] = RPMI 5 mM glucose + 10% FBS, 0.00234 µM
[14] = RPMI 5 mM glucose + 10% FBS, 0.00702 µM
[15] = RPMI 5 mM glucose + 10% FBS, 0.0211 µM
[16] = RPMI 5 mM glucose + 10% FBS, 0.0632 µM
[17] = RPMI 5 mM glucose + 10% FBS, 0.19 µM
[18] = RPMI 5 mM glucose + 10% FBS, 0.569 µM
[19] = RPMI 5 mM glucose + 10% FBS, 1.71 µM
[20] = RPMI 5 mM glucose + 10% FBS, 5.12 µM
[21] = RPMI 5 mM glucose + 10% FBS, 15.4 µM
[22] = RPMI 5 mM glucose + 10% FBS, 46.1 µM
[23] = RPMI 5 mM glucose + 10% dialyzed FBS, 0.000781 µM
[24] = RPMI 5 mM glucose + 10% dialyzed FBS, 0.00234 µM
[25] = RPMI 5 mM glucose + 10% dialyzed FBS, 0.00702 µM
[26] = RPMI 5 mM glucose + 10% dialyzed FBS, 0.0211 µM
[27] = RPMI 5 mM glucose + 10% dialyzed FBS, 0.0632 µM
[28] = RPMI 5 mM glucose + 10% dialyzed FBS, 0.19 µM
[29] = RPMI 5 mM glucose + 10% dialyzed FBS, 0.569 µM
[30] = RPMI 5 mM glucose + 10% dialyzed FBS, 1.71 µM
[31] = RPMI 5 mM glucose + 10% dialyzed FBS, 5.12 µM
[32] = RPMI 5 mM glucose + 10% dialyzed FBS, 15.4 µM
[33] = RPMI 5 mM glucose + 10% dialyzed FBS, 46.1 µM

SMILES | cell viability [1] [%] | cell viability [2] [%] | cell viability [3] [%] | cell viability [4] [%] | cell viability [5] [%] | cell viability [6] [%] | cell viability [7] [%] | cell viability [8] [%] | cell viability [9] [%] | cell viability [10] [%] | cell viability [11] [%] | cell viability [12] [%] | cell viability [13] [%] | cell viability [14] [%] | cell viability [15] [%] | cell viability [16] [%] | cell viability [17] [%] | cell viability [18] [%] | cell viability [19] [%] | cell viability [20] [%] | cell viability [21] [%] | cell viability [22] [%] | cell viability [23] [%] | cell viability [24] [%] | cell viability [25] [%] | cell viability [26] [%] | cell viability [27] [%] | cell viability [28] [%] | cell viability [29] [%] | cell viability [30] [%] | cell viability [31] [%] | cell viability [32] [%] | cell viability [33] [%]
C[C@]\1(CCS\C(=N1)N)C2=CC(=C(F)C=C2F)C3=CN=CN=C3 | 80 | 95.5 | 91.6 | 94.5 | 90.4 | 94.6 | 108 | 99.3 | 102 | 102 | 29.3 | 92 | 84.1 | 98 | 104 | 106 | 95.7 | 96.6 | 114 | 71.2 | 5.19 | 2.28 | 95.1 | 80.4 | 107 | 111 | 103 | 96.4 | 101 | 108 | 95.8 | 51.3 | 2.95
CN(C)Cc1ccc(-c2nc3cccc4c3n2CCNC4=O)cc1 | 100 | 105 | 93.5 | 114 | 114 | 118 | 122 | 121 | 127 | 119 | 113 | 103 | 106 | 119 | 117 | 109 | 127 | 94.7 | 120 | 129 | 109 | 115 | 91.4 | 96.3 | 107 | 94.7 | 97.8 | 107 | 93 | 98.7 | 105 | 110 | 98.3
CO[C@H]1C[C@@H]2CC[C@@H](C)[C@@](O)(O2)C(=O)C(=O)N2CCCC[C@H]2C(=O)O[C@H]([C@H](C)C[C@@H]2CC[C@@H](OP(C)(C)=O)[C@H](OC)C2)CC(=O)[C@H](C)/C=C(\C)[C@@H](O)[C@@H](OC)C(=O)[C@H](C)C[C@H](C)/C=C/C=C/C=C/1C | 91 | 97.7 | 99.9 | 98.8 | 81.7 | 40.8 | 80.2 | 81.9 | 75.4 | 71.1 | 64.1 | 87.7 | 96 | 105 | 76.7 | 80.9 | 42.9 | 85.8 | 78.8 | 63.7 | 66.6 | 52.9 | 105 | 98.1 | 108 | 108 | 92.3 | 40.3 | 85.7 | 86.9 | 71.9 | 68.2 | 57.1
N[C@@H](C(=O)N[C@H]1[C@H]2SC\C(=C(/N2C1=O)C(O)=O)Cl)C3=CC=CC=C3 | 104 | 101 | 118 | 108 | 117 | 110 | 118 | 108 | 115 | 128 | 132 | – | – | – | – | – | – | – | – | – | – | – | 119 | 135 | 117 | 149 | 137 | 126 | 147 | 150 | 120 | 131 | 129
O=[N+]([O-])c1cn2c(n1)OC[C@@H](OCc1ccc(OC(F)(F)F)cc1)C2 | 105 | 97.3 | 108 | 115 | 109 | 101 | 96.3 | 89 | 86.7 | 92.4 | 90.5 | 120 | 112 | 118 | 144 | 117 | 129 | 137 | 125 | 114 | 122 | 132 | – | – | – | – | – | – | – | – | – | – | –
COc1ccc(CCN2CCN(CCCc3ccccc3)CC2)cc1OC | 100 | 115 | 117 | 133 | 133 | 138 | 134 | 126 | 125 | 127 | 127 | 108 | 125 | 112 | 124 | 133 | 132 | 127 | 129 | 133 | 125 | 109 | 115 | 113 | 132 | 134 | 141 | 162 | 150 | 148 | 141 | 139 | 122
Nc1ccccc1NC(=O)c1ccc(CNc2nccc(-c3cccnc3)n2)cc1 | 98.4 | 101 | 117 | 109 | 119 | 110 | 73.1 | 25.5 | 8.57 | 6.62 | 7.25 | 89.7 | 94.4 | 91.6 | 97.6 | 105 | 105 | 69.4 | 21.8 | 7.2 | 6.22 | 6.49 | 92.7 | 111 | 106 | 106 | 117 | 105 | 62.8 | 17.5 | 7.07 | 6.52 | 7.92
CC(=O)N1CCN(c2ccc(OCc3nn(C)c(C)c3-c3cccc4c(CCCOc5cc(C)c(Cl)c(C)c5)c(C(=O)O)n(Cc5cccnc5)c34)cc2)CC1 | 78.5 | 91.7 | 106 | 75.1 | 111 | 118 | 117 | 105 | 99.3 | 97.4 | 2.86 | 97.6 | 84.3 | 97.8 | 77.5 | 97.3 | 104 | 117 | 100 | 82.5 | 54 | 1.85 | 96.3 | 101 | 106 | 81.2 | 111 | 112 | 110 | 121 | 94.6 | 77.5 | 1.96
C[C@@H]1C[C@H]2[C@@H]3\C=C(C)/C4=C/C5=C(C[C@]4(C)[C@H]3[C@@H](O)C[C@]2(C)[C@@]1(O)C(=O)COC(C)=O)C=N[N]5C6=CC=CC=C6 | 134 | 120 | 111 | 104 | 85.4 | 67.8 | 66.4 | 56.8 | 59.7 | 59.9 | 58.8 | – | – | – | – | – | – | – | – | – | – | – | 143 | 117 | 116 | 97.7 | 75 | 63.1 | 52.8 | 54.9 | 46.1 | 43.3 | 35.5
O=C/1\C=C(/OC(=C1)/C2=C3SC4=C(SC3=CC=C2)C=CC=C4)N5CCOCC5 | 74.3 | 84.1 | 92.6 | 21.5 | 99.7 | 105 | 102 | 104 | 96.3 | 90.3 | 86.7 | 85.8 | 92.7 | 101 | 15.8 | 109 | 117 | 108 | 105 | 106 | 105 | 112 | 91.5 | 87.6 | 88 | 15.5 | 93 | 99.1 | 96 | 108 | 91.4 | 85.5 | 91.3
COc1cc2nccc(Oc3ccc(NC(=O)C4(C(=O)Nc5ccc(F)cc5)CC4)cc3)c2cc1OC | 87.6 | 90.6 | 71.2 | 52.1 | 53.5 | 48.7 | 52.9 | 48.3 | 47.1 | 30.4 | 16.7 | 92.2 | 89.2 | 79.6 | 62.2 | 58.9 | 55.4 | 56 | 51.7 | 46.7 | 31.2 | 5.48 | 71.3 | 71.6 | 57.2 | 42.3 | 47.9 | 43.7 | 41.1 | 46.4 | 40.1 | 26.9 | 12.6
CCOC(=O)Nc1ccc(NCc2ccc(F)cc2)cc1N | 122 | 122 | 128 | 120 | 103 | 123 | 119 | 112 | 113 | 107 | 90 | 115 | 116 | 123 | 136 | 102 | 131 | 122 | 111 | 113 | 134 | 97.7 | 106 | 132 | 121 | 128 | 123 | 124 | 112 | 122 | 124 | 122 | 83.5
COC(=O)N1CCN(Cc2cccc(NC(=O)Nc3ccc(C)nc3)c2F)CC1 | 96.1 | 95.2 | 105 | 108 | 99.2 | 105 | 86.7 | 100 | 100 | 102 | 73.7 | 122 | 120 | 120 | 116 | 119 | 124 | 124 | 114 | 116 | 108 | 96 | 90.3 | 107 | 109 | 106 | 94.7 | 112 | 94.6 | 90.1 | 90.7 | 86.4 | 65.3
OC[C@H]1O[C@@H](Oc2ccc(O)cc2)[C@H](O)[C@@H](O)[C@@H]1O | 68.3 | 82.3 | 75.3 | 93 | 90.1 | 95.1 | 95.7 | 19.1 | 93.1 | 77.7 | 76.3 | 71.7 | 90.8 | 73.7 | 96.3 | 90.3 | 95.4 | 102 | 17 | 82.3 | 103 | 77.2 | 86.2 | 81.8 | 92.2 | 87.8 | 72 | 101 | 105 | 22.1 | 97.9 | 88 | 81.2
Fc1cc(-c2cccc3ncc(-c4cnn(C5CCNCC5)c4)nc23)cc(F)c1CN1CCOCC1 | – | – | – | – | – | – | – | – | – | – | – | 110 | 113 | 107 | 110 | 112 | 105 | 103 | 95.8 | 27.4 | 25.7 | 16 | – | – | – | – | – | – | – | – | – | – | –
O=C(O)c1ccccc1C(=O)Nc1ccc(-c2ccccc2)cc1 | 63.8 | 130 | 117 | 124 | 119 | 118 | 130 | 124 | 127 | 128 | 88.5 | – | – | – | – | – | – | – | – | – | – | – | – | – | – | – | – | – | – | – | – | – | –
Fc1ccc(C(c2ccc(F)cc2)N2CCN(C/C=C/c3ccccc3)CC2)cc1 | 113 | 126 | 109 | 102 | 116 | 76.8 | 111 | 109 | 55.8 | 96.2 | 81.6 | – | – | – | – | – | – | – | – | – | – | – | – | – | – | – | – | – | – | – | – | – | –
